Test results published in patent publication US12139520B2 (priority 2020, dated 2024).
Bridge positions count the residues as written; N and C are the ends. Square brackets hold non-standard residues; d marks the D form. Peptide text beside a SMILES is read from it. Hyp = O=C(O)[C@@H]1C[C@@H](O)CN1; Cit = NC(=O)NCCC[C@H](N)C(=O)O

Columns and labels:
[1] = Physical stability of peptide analogues (Thioflavin T fibrillation); assay type: physicochemical; details: maximum ThT signal normalized between hAMY maximum and buffer background; 40° C., shaking, four days; pH 7 per table title
Outline: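 ThT fluorescence (450 nm excitation, 480 nm emission; 4 μM dye) was read every 10 min over four days at 40° C under 700 rpm shaking stress, after 1 h in pH 4 acetate or pH 7 phosphate (50 mM). Peak smoothed signal expressed as percent, scaled between buffer background and hAMY maximum.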

hAMY3 receptor = molecular target: T1, hAMY3 receptor (Homo sapiens, UniProt O60896+P30988); assay: cAMP assay for in vitro receptor activation, hAMY3-R; assay type: cell-based; details: cAMP assay, hAMY3 receptor; read-out: hAMY3R EC50
T1 sequence (P30988 25-474): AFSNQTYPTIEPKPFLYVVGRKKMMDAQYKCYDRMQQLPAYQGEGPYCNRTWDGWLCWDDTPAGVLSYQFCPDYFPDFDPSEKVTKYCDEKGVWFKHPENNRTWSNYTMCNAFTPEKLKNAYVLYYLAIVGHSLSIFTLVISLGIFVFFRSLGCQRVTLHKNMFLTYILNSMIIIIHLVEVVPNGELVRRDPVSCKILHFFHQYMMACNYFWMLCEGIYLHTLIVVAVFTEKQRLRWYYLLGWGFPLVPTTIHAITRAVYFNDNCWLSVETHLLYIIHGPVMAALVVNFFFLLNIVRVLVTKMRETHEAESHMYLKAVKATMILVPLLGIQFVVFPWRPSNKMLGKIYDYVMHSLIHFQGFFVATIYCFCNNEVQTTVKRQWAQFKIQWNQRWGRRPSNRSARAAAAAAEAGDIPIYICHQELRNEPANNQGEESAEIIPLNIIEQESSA
T1 sequence (O60896 24-148 partner): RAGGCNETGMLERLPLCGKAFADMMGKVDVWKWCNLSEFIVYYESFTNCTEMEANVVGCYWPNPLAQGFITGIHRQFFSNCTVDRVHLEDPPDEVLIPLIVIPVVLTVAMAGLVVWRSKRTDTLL
Outline: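 Stable hAMY3 cells; DPBS + 0.05% casein + 0.5 mM IBMX; graded compound doses, 30 min, RT; cAMP via HTRF Gs kit, TR-FRET read at 1 h.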

hAM1 receptor = hAM1 receptor (Homo sapiens, UniProt O60895+Q16602); assay: cAMP assay for in vitro receptor activation, hAM1-R; assay type: cell-based; details: cAMP assay, hAM1 receptor; read-out: hAM1R EC50
Outline: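 Stable hAM1 cells (monoclonal) plated 8000/well; buffer DPBS, 0.05% casein, 0.5 mM IBMX; cAMP read-out.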

Chain of hAM1 receptor (Q16602 23-461): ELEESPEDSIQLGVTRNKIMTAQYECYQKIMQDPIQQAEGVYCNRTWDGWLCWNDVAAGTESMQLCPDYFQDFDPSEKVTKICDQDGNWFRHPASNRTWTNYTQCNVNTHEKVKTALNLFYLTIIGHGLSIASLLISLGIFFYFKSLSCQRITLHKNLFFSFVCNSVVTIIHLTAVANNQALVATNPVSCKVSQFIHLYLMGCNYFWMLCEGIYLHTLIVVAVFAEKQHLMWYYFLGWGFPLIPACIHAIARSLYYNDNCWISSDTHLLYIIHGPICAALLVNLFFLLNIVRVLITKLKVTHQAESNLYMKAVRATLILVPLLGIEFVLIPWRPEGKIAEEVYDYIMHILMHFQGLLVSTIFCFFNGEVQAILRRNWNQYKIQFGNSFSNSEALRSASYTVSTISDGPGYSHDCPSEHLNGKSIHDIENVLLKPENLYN
Chain of hAM1 receptor (O60895 43-175 partner): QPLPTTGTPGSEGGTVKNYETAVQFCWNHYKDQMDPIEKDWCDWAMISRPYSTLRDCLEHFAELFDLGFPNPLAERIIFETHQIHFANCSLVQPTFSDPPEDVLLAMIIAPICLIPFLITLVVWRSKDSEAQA

Row | SMILES | Max ThT signal (%) [1] [%] | EC50 (hAMY3 receptor) [nM] | EC50 (hAM1 receptor) [nM]
1 | CC[C@H](C)[C@H](NC(=O)[C@H](CCC(N)=O)NC(=O)[C@H](Cc1c[nH]cn1)NC(=O)[C@H](C)NC(=O)[C@H](CC(C)C)NC(=O)[C@H](CCCNC(=N)N)NC(=O)[C@H](CCC(N)=O)NC(=O)[C@@H](NC(=O)[C@@H](NC(=O)[C@@H]1CSSC[C@H](NC(=O)CN)C(=O)N[C@@H](CCCNC(=N)N)C(=O)N[C@@H](CCSC)C(=O)NCC(=O)N[C@@H]([C@@H](C)O)C(=O)N1)[C@@H](C)O)C(C)C)C(=O)N[C@@H](Cc1ccc(O)cc1)C(=O)N[C@@H](CCC(N)=O)C(=O)N[C@@H](Cc1ccccc1)C(=O)N[C@H](C(=O)N[C@@H](CC(=O)O)C(=O)N[C@@H](CCCCN)C(=O)N[C@@H](CC(=O)O)C(=O)N[C@@H](CCCCN)C(=O)N[C@@H](CC(=O)O)C(=O)N[C@@H](CC(N)=O)C(=O)N[C@H](C(=O)N[C@@H](C)C(=O)N1CCC[C@H]1C(=O)N[C@@H](CO)C(=O)N[C@@H](CO)C(=O)N[C@@H](CCCCN)C(=O)N[C@H](C(=O)N[C@@H](CO)C(=O)N1CCC[C@H]1C(=O)N[C@@H](CCC(N)=O)C(=O)N[C@H](C(=O)N1C[C@H](O)C[C@H]1C(N)=O)[C@@H](C)O)[C@@H](C)CC)C(C)C)[C@@H](C)O [compound 222] (H-GCRMGTCTVQRLAHQIYQFTDKDKDNVAPSSKISPQT[Hyp]-NH2; disulfide 2-7; N-terminus assumed) | 11.700 | 0.184 | > 5000
2 | CC[C@H](C)[C@H](NC(=O)[C@H](CCC(N)=O)NC(=O)[C@H](Cc1c[nH]cn1)NC(=O)[C@H](C)NC(=O)[C@H](CC(C)C)NC(=O)[C@H](CCCNC(=N)N)NC(=O)[C@H](CCC(N)=O)NC(=O)[C@@H](NC(=O)[C@@H](NC(=O)[C@@H]1CSSC[C@H](NC(=O)CN)C(=O)N[C@@H](CCCNC(=N)N)C(=O)N[C@@H]([C@@H](C)O)C(=O)NCC(=O)N[C@@H]([C@@H](C)O)C(=O)N1)[C@@H](C)O)C(C)C)C(=O)N[C@@H](Cc1ccc(O)cc1)C(=O)N[C@@H](CCC(N)=O)C(=O)N[C@@H](Cc1ccccc1)C(=O)N[C@H](C(=O)N[C@@H](CC(N)=O)C(=O)N[C@@H](CCCCN)C(=O)N[C@@H](CC(=O)O)C(=O)N[C@@H](CCCCN)C(=O)N[C@@H](CC(=O)O)C(=O)N[C@@H](CC(N)=O)C(=O)N[C@H](C(=O)N[C@@H](C)C(=O)N1CCC[C@H]1C(=O)N[C@@H](CCCNC(=N)N)C(=O)N[C@@H](CO)C(=O)N[C@@H](CCCCN)C(=O)N[C@H](C(=O)N[C@@H](CO)C(=O)N1CCC[C@H]1C(=O)N[C@@H](CCC(N)=O)C(=O)N[C@H](C(=O)N[C@@H](Cc1c[nH]c2ccccc12)C(N)=O)[C@@H](C)O)[C@@H](C)CC)C(C)C)[C@@H](C)O [compound 226] (H-GCRTGTCTVQRLAHQIYQFTNKDKDNVAPRSKISPQTW-NH2; disulfide 2-7; N-terminus assumed) | 27.000 | 0.186 | > 5000
3 | CC[C@H](C)[C@H](NC(=O)[C@H](CCC(N)=O)NC(=O)[C@H](Cc1c[nH]cn1)NC(=O)[C@H](C)NC(=O)[C@H](CC(C)C)NC(=O)[C@H](CCCNC(=N)N)NC(=O)[C@H](CCC(N)=O)NC(=O)[C@@H](NC(=O)[C@@H](NC(=O)[C@@H]1CSSC[C@H](NC(=O)CN)C(=O)N[C@@H](CCCNC(=N)N)C(=O)N[C@@H]([C@@H](C)O)C(=O)NCC(=O)N[C@@H]([C@@H](C)O)C(=O)N1)[C@@H](C)O)C(C)C)C(=O)N[C@@H](Cc1ccc(O)cc1)C(=O)N[C@@H](CCC(N)=O)C(=O)N[C@@H](Cc1ccccc1)C(=O)N[C@H](C(=O)N[C@@H](CC(N)=O)C(=O)N[C@@H](CCCCN)C(=O)N[C@@H](CC(=O)O)C(=O)N[C@@H](CCCCN)C(=O)N[C@@H](CC(=O)O)C(=O)N[C@@H](CC(N)=O)C(=O)N[C@H](C(=O)N[C@@H](C)C(=O)N1CCC[C@H]1C(=O)N[C@@H](CCCNC(=N)N)C(=O)N[C@@H](CO)C(=O)N[C@@H](CCCCN)C(=O)N[C@H](C(=O)N[C@@H](CO)C(=O)N1CCC[C@H]1C(=O)N[C@@H](CCC(N)=O)C(=O)N[C@H](C(=O)N[C@@H](CCSC)C(N)=O)[C@@H](C)O)[C@@H](C)CC)C(C)C)[C@@H](C)O [compound 237] (H-GCRTGTCTVQRLAHQIYQFTNKDKDNVAPRSKISPQTM-NH2; disulfide 2-7) | 0.300 | 0.235 | 4250
4 | CC[C@H](C)[C@H](NC(=O)[C@H](CCC(N)=O)NC(=O)[C@H](Cc1c[nH]cn1)NC(=O)[C@H](C)NC(=O)[C@H](CC(C)C)NC(=O)[C@H](CCCNC(=N)N)NC(=O)[C@H](CCC(N)=O)NC(=O)[C@@H](NC(=O)[C@@H](NC(=O)[C@@H]1CSSC[C@H](NC(=O)CN)C(=O)N[C@@H](CCCNC(=N)N)C(=O)N[C@@H]([C@@H](C)O)C(=O)NCC(=O)N[C@@H]([C@@H](C)O)C(=O)N1)[C@@H](C)O)C(C)C)C(=O)N[C@@H](Cc1ccc(O)cc1)C(=O)N[C@@H](CCC(N)=O)C(=O)N[C@@H](Cc1ccccc1)C(=O)N[C@H](C(=O)N[C@@H](CC(N)=O)C(=O)N[C@@H](CCCCN)C(=O)N[C@@H](CC(=O)O)C(=O)N[C@@H](CCCCN)C(=O)N[C@@H](CC(=O)O)C(=O)N[C@@H](CC(N)=O)C(=O)N[C@H](C(=O)N[C@@H](C)C(=O)N1CCC[C@H]1C(=O)N[C@@H](CCCNC(=N)N)C(=O)N[C@@H](CO)C(=O)N[C@@H](CCCCN)C(=O)N[C@H](C(=O)N[C@@H](CO)C(=O)N1CCC[C@H]1C(=O)N[C@@H](CCC(N)=O)C(=O)N[C@@H](Cc1ccccc1)C(=O)N1C[C@H](O)C[C@H]1C(N)=O)[C@@H](C)CC)C(C)C)[C@@H](C)O [compound 238] (H-GCRTGTCTVQRLAHQIYQFTNKDKDNVAPRSKISPQF[Hyp]-NH2; disulfide 2-7; N-terminus assumed) | 0.600 | 0.235 | > 5000
5 | CC[C@H](C)[C@H](NC(=O)[C@H](CCC(N)=O)NC(=O)[C@H](Cc1c[nH]cn1)NC(=O)[C@H](C)NC(=O)[C@H](CC(C)C)NC(=O)[C@H](CCCNC(=N)N)NC(=O)[C@H](CCC(N)=O)NC(=O)[C@@H](NC(=O)[C@@H](NC(=O)[C@@H]1CSSC[C@H](NC(=O)CN)C(=O)N[C@@H](CCCNC(=N)N)C(=O)N[C@@H]([C@@H](C)O)C(=O)NCC(=O)N[C@@H]([C@@H](C)O)C(=O)N1)[C@@H](C)O)C(C)C)C(=O)N[C@@H](Cc1ccc(O)cc1)C(=O)N[C@@H](CCC(N)=O)C(=O)N[C@@H](Cc1ccccc1)C(=O)N[C@H](C(=O)N[C@@H](CC(=O)O)C(=O)N[C@@H](CCCCN)C(=O)N[C@@H](Cc1ccccc1)C(=O)N[C@@H](CCCCN)C(=O)N[C@@H](CC(=O)O)C(=O)N[C@@H](CC(N)=O)C(=O)N[C@H](C(=O)N[C@@H](C)C(=O)N1CCC[C@H]1C(=O)N[C@@H](CCCNC(=N)N)C(=O)N[C@@H](CO)C(=O)N[C@@H](CCCCN)C(=O)N[C@H](C(=O)N[C@@H](CO)C(=O)N1CCC[C@H]1C(=O)N[C@@H](CCC(N)=O)C(=O)N[C@H](C(=O)N[C@@H](Cc1ccccc1)C(N)=O)[C@@H](C)O)[C@@H](C)CC)C(C)C)[C@@H](C)O [compound 239] (H-GCRTGTCTVQRLAHQIYQFTDKFKDNVAPRSKISPQTF-NH2; disulfide 2-7; N-terminus assumed) | 0.200 | 0.236 | > 5000
6 | CC[C@H](C)[C@H](NC(=O)[C@H](CCC(N)=O)NC(=O)[C@H](CC(=O)O)NC(=O)[C@H](C)NC(=O)[C@H](CC(C)C)NC(=O)[C@H](CCCNC(N)=O)NC(=O)[C@H](C)NC(=O)[C@@H](NC(=O)[C@@H](NC(=O)[C@@H]1CSSC[C@H](NC(=O)[C@@H](N)CCCCN)C(=O)N[C@@H](CC(N)=O)C(=O)N[C@@H]([C@@H](C)O)C(=O)N[C@@H](CO)C(=O)N[C@@H]([C@@H](C)O)C(=O)N1)[C@@H](C)O)C(C)C)C(=O)N[C@H](C(=O)N[C@@H](CCC(N)=O)C(=O)N[C@@H](Cc1ccccc1)C(=O)N[C@@H](CO)C(=O)N[C@@H](CC(N)=O)C(=O)N[C@@H](CCCCN)C(=O)N[C@@H](CC(=O)O)C(=O)N[C@@H](CCCCN)C(=O)N[C@@H](C)C(=O)N[C@@H](CCC(N)=O)C(=O)N[C@H](C(=O)N[C@@H](CO)C(=O)N1CCC[C@H]1C(=O)N1CCC[C@H]1C(=O)N[C@H](C(=O)N[C@@H](CCC(=O)O)C(=O)N[C@H](C(=O)NCC(=O)N1CCC[C@H]1C(=O)N[C@@H](CC(N)=O)C(=O)N[C@@H](CO)C(=O)N1C[C@H](O)C[C@H]1C(N)=O)C(C)C)[C@@H](C)O)C(C)C)[C@@H](C)O [compound 244] (H-KCNTSTCTVA[Cit]LADQITQFSNKDKAQVSPPTEVGPNS[Hyp]-NH2; disulfide 2-7) | 4.100 | 0.006 | > 5000
